# Patent US20050244472A1, “Intraocular drug delivery systems containing excipients with reduced toxicity and related methods” (Allergan, Inc., priority 2004, published 2005)
# Where two headings read alike, the source gives them in different places.
# How the values were obtained:
# ARPE-19 cells [1] = assay: in vitro
# Text: (§1) Cell viability and cell morphology were examined to evaluate the toxicity of excipients on retinal pigment epithelial cells. The human retina cell line used in these experiments is the ARPE-19 cell line (human adult-derived retinal pigmented epithelial cells). […] They form tight-junctions with transepithelial resistance of monolayers (Dunn K C et al., supra). From a molecular standpoint, it appears that ARPE-19 express a huge pattern of genes similar to those expressed by human RPE from fresh explant which could account for their physiological function (Klimanskaya I. et al., “Derivation and comparative assessment of retinal pigment epithelium from human embryonic stem cells using transcriptomics”, Cloning and Stem Cells, 2004, 6(3):217-45).
# (§2) ARPE-19 cells are widely used as a retinal model that resemble physiological properties of RPE cells. Similar methods of culturing ARPE-19 cells and cytotoxicity assays can be found in Yeung et al., “Cytotoxicity of triamcinolone on cultured human retinal pigment epithelial cells: comparison with dexamethasone and hydrocortisone”, Jpn J. Ophthalmol, 2004; 48:236-242. Cell viability and cell morphology were examined using conventional colormetric and visual methods. Viability and morphology measurements were obtained at 24 hours, 48 hours, and 72 hours after exposure to an excipient composition.
# (§3) To assess cell viability, mitochondrial metabolism was quantified through conventional colorometric assays (i.e., the MTT assay). This colorimetric assay utilizes 3-(4,5-dimethylthiazol-2-yl)-2,5-diphenyltetrazolium bromide (MTT) and correlates mitochondrial metabolism and cell viability through measurement of dehydrogenase activity which converts a substrate into crystal. More specifically, the assay measures the activity of living cells through mitochondrial dehydrogenases. When dissolved in culture cell medium, MTT solution appears dark orange. Mitochondrial dehydrogenases of viable cells degrade MTT by cleaving the tetrazolium ring yielding to formation of a purple formazan crystal, which is insoluble in water. Crystals are subsequently dissolved in isopropanol solution. A resulting purple solution is spectrophotometrically measured. Cell viability is relative to amount of formazan and calculated as a percentage of remaining treated compared to non-treated cells.
# (§4) Results from the MTT assay were expressed as a percentage of cell viability calculated using the following equation: % cell viability=ODtest/ODcontrol×100.
# (§5) For each experiment, one concentration was performed in triplicate. Each point was spectrophotometrically read twice. Average of readings was calculated, then average from these 3 values was determined.
# (§6) After 3 experiments were independently completed under the same conditions, a graph was plotted with cell viability expressed as a function of concentration (dose response) and for various incubation period (time course). The IC50 was then estimated based on the graphed data.
# (§7) More specifically, cell density in 24-multiwell plates was observed on the day of the experiment to check if confluence of the cells was reached. Aliquots of MTT concentrated solutions were removed from a freezer at −20° C. and thawed at room temperature. Cell medium was warmed at 37° C. before use. Appropriated tubes for diluting compounds were prepared. Higher concentrations of each excipient agent was prepared. Serial dilution was then performed in cell medium (DMEM:F12+10% FBS).
# (§8) Cell culture medium in the 24-well plate was removed using vacuum-pump. Cells were then stimulated with 0.5 ml final volume for each concentration of one given excipient agent. Distribution of the excipient-containing solution was performed using automated pipet-aid in sterile environment (under PSM) or not depending on time of compounds and duration of incubation.
# (§9) After stimulation, cells were replaced in a CO2 incubator for the required time of exposure.
# in vitro = details: human
# Text: as §1, §2, §3, §4, §5, §6, §7, §8, §9
# [2] = Osmolarity of excipient-containing incubating solutions; format: physicochemical
# Protocol: Osmolarity was measured using osmometer type 13/13DR from Roebling (Berlin, GR).
# (§10) For each concentration of tested compound, pH and osmolarity parameters were measured.
# [3] = pH of excipient-containing incubating solutions; format: physicochemical
# Protocol: as §10
# ARPE-19 cells [4] = format: cell-based
# Protocol: Cell morphology was visualized using light microscopy. Cell morphology observation using light microscopy permits determination of (i) cell number and density and (ii) whether or not cells in contact with an excipient agent display modified phenotype compared to a non-treated population of cells.
# Cell morphology was analyzed in parallel by semi-quantitative scoring ranging from 5 to 1, from basal to lethal phenotype respectively, as shown in FIG. 23.
# More specifically, cells were removed from an incubator for examination. Morphological shape of cells was visualized using a light microscope and CCD camera. Every 3 wells of a given concentration was observed through image analysis software. Then, a representative photograph describing the average appearance of cells was saved. The supernatant was either, kept for further predefined experiments to perform, or removed using vacuum-pump.
# Resulting semi-quantitative scoring is represented as a function of time course and dose response. Score 5: wild type phenotype of non-treated cells, 100% confluent adherent cells. This phenotype very much vary following post-seeding time. For example, at confluence ARPE-19 cells at 1 day appear well defined with visible outer membrane and dark grey cytoplasm. After 3 days of confluence, limits between cells become less visible and cells adopt a more hexagonal shape and constitute an epithelium-like uniform dense structure. Score 4: density<100%. Cell shape has changed, some spaces are present between cells, few cells possibly detached. Score 3: […]. Spaces are sometimes present among cells, areas appears confluent while in others, cells detached. General cell shape starts showing non negligible alterations. Score 2: Cell density<50%. Cells adopt exclusively stressed appearance, presence of mass dead floating cells. Score 1: Cell density<10%. Presence of almost exclusively dead cells.
# Based on quotation, each condition of the applied compound was given a score which allow to a morphology evolution profile to be prepared, ie. cell morphology as a function of compound concentration and time of exposure. […]
# [5] = 0.05% excipient dilution in culture medium
# [6] = 0.1% excipient dilution in culture medium
# [7] = 0.5% excipient dilution in culture medium
# [8] = 1% excipient dilution in culture medium
# [9] = 2% excipient dilution in culture medium
# [10] = […] excipient dilution in culture medium
structure (smiles),measurement,setting,value
"OCc1ccccc1 [Benzyl alcohol, benzyl alcohol]",overall cytotoxicity to ARPE-19 cells (conclusion in words),ARPE-19 cells [1],very aggressive impact
same,cytotoxicity at 0.05 %,in vitro,~45%
same,"viability at 24 h, 0.05 %",in vitro; Cell Viability,56.1%
same,"viability at 24 h, 0.1 %",in vitro; Cell Viability,48%
same,"viability at 48 h, 0.05 %",in vitro; Cell Viability,60.9%
same,"viability at 48 h, 0.1 %",in vitro; Cell Viability,49%
same,"viability at 48 h, 0.5 %",in vitro; Cell Viability,1.2%
same,"viability at 72 h, 0.05 %",in vitro; Cell Viability,57.5%
same,"viability at 72 h, 0.1 %",in vitro; Cell Viability,49.1%
same,"viability at 24 h, 0.05 %","in vitro; Cell Viability, Mean (%)",55.7%
same,"viability at 24 h, 0.1 %","in vitro; Cell Viability, Mean (%)",45.9%
same,"viability at 24 h, 0.5 %","in vitro; Cell Viability, Mean (%)",13.3%
same,"viability at 24 h, 1 %","in vitro; Cell Viability, Mean (%)",0.4%
same,"viability at 24 h, 2 %","in vitro; Cell Viability, Mean (%)",0.3%
same,"viability at 24 h, […]","in vitro; Cell Viability, Mean (%)",0.4%
same,"viability at 48 h, 0.05 %","in vitro; Cell Viability, Mean (%)",57.3%
same,"viability at 48 h, 0.1 %","in vitro; Cell Viability, Mean (%)",42%
same,"viability at 48 h, 0.5 %","in vitro; Cell Viability, Mean (%)",1.5%
same,"viability at 48 h, 1 %","in vitro; Cell Viability, Mean (%)",1.5%
same,"viability at 48 h, 2 %","in vitro; Cell Viability, Mean (%)",1.2%
same,"viability at 48 h, […]","in vitro; Cell Viability, Mean (%)",1.3%
same,"viability at 72 h, 0.05 %","in vitro; Cell Viability, Mean (%)",53.7%
same,"viability at 72 h, 0.1 %","in vitro; Cell Viability, Mean (%)",42.2%
same,"viability at 72 h, 0.5 %","in vitro; Cell Viability, Mean (%)",1.1%
same,"viability at 72 h, 1 %","in vitro; Cell Viability, Mean (%)",0.9%
same,"viability at 72 h, 2 %","in vitro; Cell Viability, Mean (%)",1%
same,"viability at 72 h, […]","in vitro; Cell Viability, Mean (%)",1%
same,mOsm,[2]; [5],293 mOsm
same,mOsm,[2]; [6],307 mOsm
same,mOsm,[2]; [7],347 mOsm
same,mOsm,[2]; [8],398 mOsm
same,mOsm,[2]; [9],493 mOsm
same,mOsm,[2]; [10],444 mOsm
same,pH,[3]; [5],8
same,pH,[3]; [6],8.1
same,pH,[3]; [7],8
same,pH,[3]; [8],7.9
same,pH,[3]; [9],8
same,pH,[3]; [10],7.9
same,living cells (morphology observation),ARPE-19 cells [4],no living cells survived
same,Morphology limit concentration (%),ARPE-19 cells [4]; human,0.07%
same,"Cell Morphology score, Mean","ARPE-19 cells [4]; human, 24 h, 0.05 %",3.3
same,"Cell Morphology score, Mean","ARPE-19 cells [4]; human, 24 h, 0.1 %",3.0
same,"Cell Morphology score, Mean","ARPE-19 cells [4]; human, 24 h, 0.5 %",1.0
same,"Cell Morphology score, Mean","ARPE-19 cells [4]; human, 24 h, 1 %",1.0
same,"Cell Morphology score, Mean","ARPE-19 cells [4]; human, 24 h, 2 %",1.0
same,"Cell Morphology score, Mean","ARPE-19 cells [4]; human, 24 h, […]",1.0
same,"Cell Morphology score, Mean","ARPE-19 cells [4]; human, 48 h, 0.05 %",3.7
same,"Cell Morphology score, Mean","ARPE-19 cells [4]; human, 48 h, 0.1 %",3.0
same,"Cell Morphology score, Mean","ARPE-19 cells [4]; human, 48 h, 0.5 %",1.0
same,"Cell Morphology score, Mean","ARPE-19 cells [4]; human, 48 h, 1 %",1.0
same,"Cell Morphology score, Mean","ARPE-19 cells [4]; human, 48 h, 2 %",1.0
same,"Cell Morphology score, Mean","ARPE-19 cells [4]; human, 48 h, […]",1.0
same,"Cell Morphology score, Mean","ARPE-19 cells [4]; human, 72 h, 0.05 %",3.3
same,"Cell Morphology score, Mean","ARPE-19 cells [4]; human, 72 h, 0.1 %",3.0
same,"Cell Morphology score, Mean","ARPE-19 cells [4]; human, 72 h, 0.5 %",1.0
same,"Cell Morphology score, Mean","ARPE-19 cells [4]; human, 72 h, 1 %",1.0
same,"Cell Morphology score, Mean","ARPE-19 cells [4]; human, 72 h, 2 %",1.0
same,"Cell Morphology score, Mean","ARPE-19 cells [4]; human, 72 h, […]",1.0
